# Legend:
# [1] = target: T1, EphB3 (Homo sapiens, UniProt P54753); test: Competition / pulse-chase with probe 10 for EphB3 occupancy in HEK293 cells
# T1 sequence (P54753 34-998): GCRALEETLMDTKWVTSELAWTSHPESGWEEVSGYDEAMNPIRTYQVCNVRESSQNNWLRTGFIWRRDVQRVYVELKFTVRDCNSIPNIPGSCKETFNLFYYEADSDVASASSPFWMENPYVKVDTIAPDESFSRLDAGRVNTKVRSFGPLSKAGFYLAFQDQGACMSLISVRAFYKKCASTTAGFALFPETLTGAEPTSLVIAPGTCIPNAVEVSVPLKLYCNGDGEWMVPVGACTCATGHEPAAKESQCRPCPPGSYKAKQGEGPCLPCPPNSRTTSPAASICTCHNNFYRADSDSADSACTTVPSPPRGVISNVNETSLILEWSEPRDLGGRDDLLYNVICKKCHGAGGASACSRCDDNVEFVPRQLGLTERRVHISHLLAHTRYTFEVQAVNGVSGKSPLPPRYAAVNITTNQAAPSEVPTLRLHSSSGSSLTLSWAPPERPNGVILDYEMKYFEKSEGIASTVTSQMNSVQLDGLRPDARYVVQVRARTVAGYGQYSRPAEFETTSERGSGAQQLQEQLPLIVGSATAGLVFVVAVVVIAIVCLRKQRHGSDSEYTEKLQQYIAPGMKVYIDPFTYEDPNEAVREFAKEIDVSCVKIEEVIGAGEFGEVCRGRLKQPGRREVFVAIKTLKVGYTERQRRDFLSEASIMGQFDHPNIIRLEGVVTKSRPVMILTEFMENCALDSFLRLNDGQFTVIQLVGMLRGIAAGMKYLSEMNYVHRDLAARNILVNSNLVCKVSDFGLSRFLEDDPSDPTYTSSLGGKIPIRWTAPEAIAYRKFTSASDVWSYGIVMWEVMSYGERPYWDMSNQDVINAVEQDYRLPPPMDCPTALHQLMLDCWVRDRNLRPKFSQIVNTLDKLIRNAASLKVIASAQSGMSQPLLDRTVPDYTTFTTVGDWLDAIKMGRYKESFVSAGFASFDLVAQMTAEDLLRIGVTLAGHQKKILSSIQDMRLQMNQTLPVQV
# [2] = target: T1, EphB3; test: Competition with probe 10 for EphB3 labeling in cell lysate; format: binding
# [3] = target: T2, EphB3 WT (Homo sapiens, UniProt P54753); test: EphB3 autophosphorylation in transfected HEK293 cells; format: cell-based; details: read-out: IC50, EphB3 autophosphorylation in cells
# T2 sequence (P54753 34-998): T1 sequence (P54753 34-998)
structure (smiles),measurement,setting,value
Cc1ccc(C(=O)Nc2cccc(C(F)(F)F)c2)cc1Nc1nc(-c2cccnc2)nc2c1cnn2C [BHG-712],time to engage EphB3 (preincubation required to block labeling by 10),[1]; live cells,over 10 min
same,IC50,"[1]; read-out: IC50 for probe labeling of EphB3, competition with 10 (10 nM) in cells",260 nM
same,time to engage EphB3 (preincubation required to compete off labeling by 10),[2],over 10 min
same,IC50,[3],320 nM
